From patent US9499493B2, “2,4-pyrimidinediamine compounds and their uses” (Rigel Pharmaceuticals, Inc., priority 2002, dated 2016)
pIC50: −log10 of the molar value.

Experiments:
Format in all cases: cell-based
[1] = test system: cultured human mast cells (CHMC); test: CHMC low cell density IgE activation: tryptase assay; details: anti-IgE
Outline: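 Degranulation was triggered with anti-IgE for 30 minutes at 37° C in cultured human mast cells seeded at low density (1000-1500 cells/well, chosen by donor) after a 1 hr equilibration in MT buffer. Released tryptase in cleared supernatant was quantified with a tryptase substrate at room temperature for 30 minutes.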

[2] = test system: cultured human mast cells (CHMC); test: CHMC low cell density IgE activation: LTC4 assay; details: anti-IgE
Procedure: Pellet CHMC cells (980 rpm, 10 min) and resuspend in pre-warmed MT. Add 65 ul of cells to each 96-well plate. Depending on the degranulation activity for each particular CHMC donor, load 1000-1500 cells/well. Mix four times followed by a 1 hr incubation at 37° C. […] Stimulate cells by adding 25 ul of 6× anti-IgE solution to the appropriate plates. Add 25 ul MT to un-stimulated control wells. Mix twice following addition of the anti-IgE. Incubate at 37° C. for 30 minutes. […] Spin plates at 1000 rpm for 10 min to pellet cells. Transfer 25 ul of supernatant to a 96-well black bottom plate and add 100 ul of freshly diluted tryptase substrate solution to each well. Incubate plates at room temperature for 30 min.
Leukotriene C4 (LTC4) is also quantified using an ELISA kit on appropriately diluted supernatant samples (determined empirically for each donor cell population so that the sample measurement falls within the standard curve) following the supplier's instructions.

[3] = test system: cultured human mast cells (CHMC); test: CHMC low cell density ionomycin activation: tryptase assay
[4] = test system: Jurkat cells; test: Jurkat (T-cell) toxicity, light scatter; details: 18-24 hr incubation; read-out: Toxicity Jurkat Light Scat.
Procedure: Dilute Jurkat cells to 2×10^5 cells/ml in complete RPMI (10% heat-inactivated fetal bovine serum) media and incubate at 37° C., 5% CO2 for 18 hours. Add 65 ul cells at 7.7×10^5 cells/ml to a 96-well V-bottom plate (TC-treated, Costar) containing 65 ul 2× compound (final vehicle concentration is 0.5% DMSO, 1.5% MeOH). Mix, incubate plates for 18-24 hr at 37° C., 5% CO2. Toxicity was assessed by flow cytometric analysis of cellular light scatter

[5] = test system: B-cell line BJAB; test: BJAB (B-cell) toxicity, light scatter; details: read-out: Toxicity BJAB Light Scat.
Procedure: The B-cell line BJAB was cultured in log phase in RPMI1640+10% heat-inactivated fetal bovine serum, 1× L-glutamine, 1× penicillin, 1× […] and 1× beta-mercaptoethanol at 37° C., 5% CO2. First, BJABs were harvested, spun and resuspended in culture medium to a concentration of 7.7×10^5 cells/mL. 65 uL cells were mixed with 65 uL compound, in duplicate and in the presence of 0.1% DMSO in a V-bottomed 96-well tissue culture plate. Cells were incubated with compound at various dilutions at 37° C., 5% CO2. Toxicity was assessed by flow cytometric analysis of cellular light scatter.

Compound | pIC50 [1] | pIC50 [2] | pIC50 [3] | pIC50 [4] | pIC50 [5]
CCOC(=O)COc1ccc(Nc2ncc(Br)c(Nc3ccc(OCC(=O)OCC)cc3)n2)cc1 [R925779, N2,N4-Bis[4-(ethoxycarbonylmethyleneoxy)phenyl]-5-bromo-2,4-pyrimidinediamine] | 6.58 | 6.72 | < 5.00 | < 5.00 | < 5.00
CCOC(=O)COc1ccc(Nc2ncc(F)c(Nc3cccc(O)c3)n2)cc1 [R926395, N2-(4-Ethoxycarbonylmethyleneoxyphenyl)-5-fluoro-N4-(3-hydroxyphenyl)-2,4-pyrimidinediamine] | 6.06 | 6.54 | 5.19 | < 5.00 | < 5.00
CCOC(=O)COc1ccc(Nc2ncc(Br)c(Nc3cccc(O)c3)n2)cc1 [R926396, 5-Bromo-N2-(4-ethoxycarbonylmethyleneoxyphenyl)-N4-(3-hydroxyphenyl)-2,4-pyrimidinediamine] | 6.15 | 6.80 | 5.59 | < 5.00 | < 5.00
CCOC(=O)c1cnc(Nc2ccc(OCC(=O)OC)cc2)nc1Nc1ccc(OCC(=O)OC)cc1 [R926253, N2,N4-Bis(4-methoxycarbonylmethyleneoxyphenyl)-5-ethoxycarbonyl-2,4-pyrimidinediamine] | 6.10 | 6.17 |  | < 5.00 | < 5.00

The next lines start with results.

pIC50 [1] | pIC50 [2] | pIC50 [3] | Compound | pIC50 [4] | pIC50 [5]
6.42 | 6.84 | 5.77 | COC(=O)COc1ccc(Nc2ncc(F)c(Nc3ccc(OCC(=O)OC)cc3)n2)cc1 [R926240, N2,N4-Bis[(4-methoxycarbonylmethyleneoxy)phenyl]-5-fluoro-2,4-pyrimidinediamine] | 5.00 | < 5.00
6.56 | 6.64 | 5.29 | COC(=O)COc1ccc(Nc2ccnc(Nc3ccc(OCC(=O)OC)cc3)n2)cc1 [R926256, N2,N4-Bis[(4-methoxycarbonylmethyleneoxy)phenyl]-2,4-pyrimidinediamine] | < 5.00 | < 5.00
6.05 | 6.23 | < 5.00 | COC(=O)COc1ccc(Nc2ncc(C)c(Nc3ccc(OCC(=O)OC)cc3)n2)cc1 [R926258, N2,N4-Bis(4-methoxycarbonylmethyleneoxyphenyl)-5-methyl-2,4-pyrimidinediamine] | < 5.00 | < 5.00
6.16 |  | 5.60 | COC(=O)COc1ccc(Nc2cc(Cl)nc(Nc3ccc(OCC(=O)OC)cc3)n2)cc1 [R926411, N2,N4-Bis(4-methoxycarbonylmethyleneoxyphenyl)-6-chloro-2,4-pyrimidinediamine] | 5.07 | < 5.00
